Assay results taken from ChEMBL document CHEMBL4507266, “Data for DCP probe BAY-784” (2021).

Key:
[1] = target: Sodium-dependent dopamine transporter (Homo sapiens) (UniProt Q01959); conditions: Compound concentration 10.0 uM
[2] = target: Gonadotropin-releasing hormone receptor (Homo sapiens, UniProt P30968); test: Mechanistic assay measuring cellular IP1; type: functional
[3] = target: GABA-A receptor; anion channel (Rattus norvegicus) (UniProt O09028+P15431+P18506+P18508+P19969+P20236+P23574+P23576+P28471+P28473+P30191+P62813+P63079+P63138+Q91ZM7+Q9ES14); conditions: Compound concentration 10.0 uM
[4] = target: Acetylcholinesterase (Homo sapiens) (UniProt P22303); conditions: Compound concentration 10.0 uM
Acetylcholinesterase (Homo sapiens), sequence (P22303 whole entry): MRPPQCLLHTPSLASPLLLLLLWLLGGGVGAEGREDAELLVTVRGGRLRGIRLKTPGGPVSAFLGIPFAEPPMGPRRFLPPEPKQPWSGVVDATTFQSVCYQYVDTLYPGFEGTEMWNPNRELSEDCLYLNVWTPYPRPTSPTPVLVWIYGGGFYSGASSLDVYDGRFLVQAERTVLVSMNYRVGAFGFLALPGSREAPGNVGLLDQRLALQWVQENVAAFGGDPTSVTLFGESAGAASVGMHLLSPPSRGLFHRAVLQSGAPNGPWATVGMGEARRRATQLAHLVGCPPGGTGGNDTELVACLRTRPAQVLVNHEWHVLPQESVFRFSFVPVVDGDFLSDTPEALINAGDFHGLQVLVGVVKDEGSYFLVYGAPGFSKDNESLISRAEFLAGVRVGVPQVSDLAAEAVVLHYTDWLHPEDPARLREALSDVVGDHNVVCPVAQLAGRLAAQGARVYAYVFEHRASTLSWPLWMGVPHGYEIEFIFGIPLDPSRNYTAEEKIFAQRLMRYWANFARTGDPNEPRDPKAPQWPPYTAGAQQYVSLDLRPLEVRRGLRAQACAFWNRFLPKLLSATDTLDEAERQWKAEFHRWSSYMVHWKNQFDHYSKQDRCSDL

[5] = system: Progesterone receptor (Bos taurus); test: Progesterone Eurofins-Panlabs radioligand binding assay; conditions: Compound concentration 10.0 uM
[6] = Inhibition of Atrial Natriuretic Factor (ANF) at 10 µM in the Eurofins-Panlabs radioligand binding assay (Eurofins_assay_211000); conditions: Cavia porcellus; Compound concentration 10 uM; Assay protocol publication PMID: 2408776; Detection method Radioligand Binding; Incubation temperature 4 °C; Incubation time 60 min; Ligand Bmax 0.013 pM/ mg protein; Ligand Kd 0.14 nM; Ligand [125I] ANF (rat); Ligand concentration 0.016 nM; Ligand specific binding 78 %; Non-specific ligand with concentration 0.1 µM ANF (rat); Reference compound ANF (rat); Source of …
[7] = target: Glucocorticoid receptor (Homo sapiens) (UniProt P04150); conditions: Compound concentration 10.0 uM
Glucocorticoid receptor (Homo sapiens), sequence (P04150 whole entry): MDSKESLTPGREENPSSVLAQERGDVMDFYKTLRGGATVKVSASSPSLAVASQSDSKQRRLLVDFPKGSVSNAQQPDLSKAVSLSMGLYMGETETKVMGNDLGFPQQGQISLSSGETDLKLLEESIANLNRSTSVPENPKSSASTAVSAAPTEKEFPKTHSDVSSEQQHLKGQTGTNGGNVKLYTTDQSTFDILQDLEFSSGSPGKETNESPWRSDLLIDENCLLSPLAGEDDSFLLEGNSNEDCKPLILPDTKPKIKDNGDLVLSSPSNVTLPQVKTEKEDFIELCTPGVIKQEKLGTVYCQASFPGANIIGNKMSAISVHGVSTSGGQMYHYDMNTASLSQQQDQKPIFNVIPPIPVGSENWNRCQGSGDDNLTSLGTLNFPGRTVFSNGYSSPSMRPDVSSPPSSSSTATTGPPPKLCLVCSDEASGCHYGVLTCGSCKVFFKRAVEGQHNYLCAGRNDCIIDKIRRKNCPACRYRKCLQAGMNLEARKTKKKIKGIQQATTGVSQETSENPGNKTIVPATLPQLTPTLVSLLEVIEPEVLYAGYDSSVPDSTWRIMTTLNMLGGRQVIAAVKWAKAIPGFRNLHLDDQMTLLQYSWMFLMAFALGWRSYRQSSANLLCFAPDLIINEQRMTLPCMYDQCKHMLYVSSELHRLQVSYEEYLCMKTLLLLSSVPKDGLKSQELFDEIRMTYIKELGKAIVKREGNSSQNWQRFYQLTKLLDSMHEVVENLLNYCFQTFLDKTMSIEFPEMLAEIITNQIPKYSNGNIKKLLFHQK

[8] = target: Sodium-dependent serotonin transporter (Homo sapiens) (UniProt P31645); conditions: Compound concentration 10.0 uM
Sodium-dependent serotonin transporter (Homo sapiens), sequence (P31645 whole entry, looked up): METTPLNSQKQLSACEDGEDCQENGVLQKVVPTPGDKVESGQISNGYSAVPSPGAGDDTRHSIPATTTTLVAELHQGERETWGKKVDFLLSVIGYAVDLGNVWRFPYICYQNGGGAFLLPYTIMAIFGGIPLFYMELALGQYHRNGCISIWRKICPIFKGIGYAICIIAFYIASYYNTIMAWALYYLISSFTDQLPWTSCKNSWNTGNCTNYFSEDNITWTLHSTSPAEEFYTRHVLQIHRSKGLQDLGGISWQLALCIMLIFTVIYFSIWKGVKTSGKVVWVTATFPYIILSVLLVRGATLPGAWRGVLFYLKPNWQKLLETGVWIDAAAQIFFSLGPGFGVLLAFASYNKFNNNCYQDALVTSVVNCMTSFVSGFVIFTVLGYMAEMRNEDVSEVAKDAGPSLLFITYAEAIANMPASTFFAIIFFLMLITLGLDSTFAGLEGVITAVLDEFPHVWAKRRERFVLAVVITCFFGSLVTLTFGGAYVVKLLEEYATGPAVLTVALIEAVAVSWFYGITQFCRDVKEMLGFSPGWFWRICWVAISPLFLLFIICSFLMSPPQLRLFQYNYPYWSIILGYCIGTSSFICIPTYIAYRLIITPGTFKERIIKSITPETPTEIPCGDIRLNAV

[9] = target: T1, Alpha-2C adrenergic receptor (Homo sapiens) (UniProt P18825); test: Adrenergic alpha2C Eurofins-Panlabs radioligand binding assay; design: ligand concentration 1 nM, non-specific ligand with concentration 10 µM WB-4101, incubation time 60 min, incubation temperature 25 °C; conditions: Compound concentration 10.0 uM
T1 sequence (whole entry): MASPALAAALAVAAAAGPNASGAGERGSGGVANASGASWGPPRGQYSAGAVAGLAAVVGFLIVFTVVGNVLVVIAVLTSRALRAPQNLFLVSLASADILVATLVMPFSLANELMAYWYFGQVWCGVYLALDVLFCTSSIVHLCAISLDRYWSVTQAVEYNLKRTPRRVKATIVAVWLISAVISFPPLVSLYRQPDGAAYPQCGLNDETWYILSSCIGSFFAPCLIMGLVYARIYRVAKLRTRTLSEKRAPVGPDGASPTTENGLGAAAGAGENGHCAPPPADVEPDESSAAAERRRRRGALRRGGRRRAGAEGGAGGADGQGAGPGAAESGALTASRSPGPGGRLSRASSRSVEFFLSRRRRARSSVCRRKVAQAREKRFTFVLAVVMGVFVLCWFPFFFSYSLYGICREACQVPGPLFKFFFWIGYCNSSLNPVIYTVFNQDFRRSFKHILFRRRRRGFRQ

[10] = target: Cholecystokinin receptor type A (Homo sapiens) (UniProt P32238); test: Inhibition of Cholecystokinin CCK1 (CCKA) at 10 µM in the Eurofins-Panlabs radioligand binding assay (Eurofins_assay_218020); conditions: Compound concentration 10.0 uM
[11] = target: Tyrosine-protein kinase Lck (Homo sapiens) (UniProt P06239); test: Inhibition of Protein Tyrosine Kinase, LCK at 10 µM in the Eurofins-Panlabs enzyme assay (Eurofins_assay_176020); conditions: Compound concentration 10.0 uM
[12] = target: Receptor-type tyrosine-protein phosphatase C (Homo sapiens) (UniProt P08575); test: Inhibition of Protein Tyrosine Phosphatase, PTPRC (CD45) at 10 µM in the Eurofins-Panlabs enzyme assay (Eurofins_assay_190010); conditions: Compound concentration 10.0 uM
[13] = target: C-C chemokine receptor type 5 (Homo sapiens) (UniProt P51681); test: Inhibition of Chemokine CCR5 at 10 µM in the Eurofins-Panlabs radioligand binding assay (Eurofins_assay_217720); conditions: Compound concentration 10.0 uM
C-C chemokine receptor type 5 (Homo sapiens), sequence (P51681 whole entry, looked up): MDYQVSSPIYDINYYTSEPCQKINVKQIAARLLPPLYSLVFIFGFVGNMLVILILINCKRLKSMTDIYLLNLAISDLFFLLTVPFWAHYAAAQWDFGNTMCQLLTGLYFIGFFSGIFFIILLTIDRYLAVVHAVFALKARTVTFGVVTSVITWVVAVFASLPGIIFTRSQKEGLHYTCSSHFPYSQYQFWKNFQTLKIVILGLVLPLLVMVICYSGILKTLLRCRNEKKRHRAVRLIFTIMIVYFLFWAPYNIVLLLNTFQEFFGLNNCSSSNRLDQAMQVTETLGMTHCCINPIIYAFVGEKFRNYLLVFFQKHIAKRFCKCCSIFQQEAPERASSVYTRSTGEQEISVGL

[14] = target: Epidermal growth factor receptor (Homo sapiens) (UniProt P00533); test: Inhibition of Protein Tyrosine Kinase, EGF Receptor at 10 µM in the Eurofins-Panlabs enzyme assay (Eurofins_assay_170020); design: substrate with concentration; conditions: Compound concentration […]
Epidermal growth factor receptor (Homo sapiens), sequence (P00533 whole entry): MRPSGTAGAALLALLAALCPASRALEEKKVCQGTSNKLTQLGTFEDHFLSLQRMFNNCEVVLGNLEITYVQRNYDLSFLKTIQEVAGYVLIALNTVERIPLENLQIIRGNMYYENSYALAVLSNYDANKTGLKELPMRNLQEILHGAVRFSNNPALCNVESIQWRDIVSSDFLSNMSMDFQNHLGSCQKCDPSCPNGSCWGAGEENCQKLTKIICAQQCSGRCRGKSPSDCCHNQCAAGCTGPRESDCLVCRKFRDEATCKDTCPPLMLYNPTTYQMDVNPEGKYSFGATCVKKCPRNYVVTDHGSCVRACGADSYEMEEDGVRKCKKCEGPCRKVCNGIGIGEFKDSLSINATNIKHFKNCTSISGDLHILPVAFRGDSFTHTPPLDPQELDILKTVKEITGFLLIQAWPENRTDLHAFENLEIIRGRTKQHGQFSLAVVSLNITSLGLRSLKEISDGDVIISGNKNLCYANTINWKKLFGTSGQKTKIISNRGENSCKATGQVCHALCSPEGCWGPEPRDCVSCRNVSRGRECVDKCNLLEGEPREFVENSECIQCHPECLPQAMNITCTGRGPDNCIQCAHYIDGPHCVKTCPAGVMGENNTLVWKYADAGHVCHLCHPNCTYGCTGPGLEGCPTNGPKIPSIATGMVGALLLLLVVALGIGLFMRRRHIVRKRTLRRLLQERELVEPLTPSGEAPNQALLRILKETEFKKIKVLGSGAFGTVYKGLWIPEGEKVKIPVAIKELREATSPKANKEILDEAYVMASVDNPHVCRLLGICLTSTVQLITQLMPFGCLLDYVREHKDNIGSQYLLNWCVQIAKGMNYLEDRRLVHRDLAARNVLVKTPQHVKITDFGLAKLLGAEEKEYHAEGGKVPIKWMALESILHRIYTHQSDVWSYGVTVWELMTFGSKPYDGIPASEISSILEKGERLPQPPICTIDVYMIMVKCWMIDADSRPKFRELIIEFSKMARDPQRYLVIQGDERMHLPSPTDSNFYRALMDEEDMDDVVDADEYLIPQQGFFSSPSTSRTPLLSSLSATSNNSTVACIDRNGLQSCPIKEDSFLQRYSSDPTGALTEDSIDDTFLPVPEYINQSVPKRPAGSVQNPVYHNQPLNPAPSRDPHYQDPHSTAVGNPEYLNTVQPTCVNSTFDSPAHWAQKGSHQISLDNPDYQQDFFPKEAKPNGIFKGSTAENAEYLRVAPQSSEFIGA

[15] = target: Receptor tyrosine-protein kinase erbB-2 (Homo sapiens) (UniProt P04626); test: Inhibition of Protein Tyrosine Kinase, ERBB2 (HER2) at 10 µM in the Eurofins-Panlabs enzyme assay (Eurofins_assay_174020); design: substrate with concentration; conditions: Compound concentration 10.0 uM
[16] = target: Estrogen receptor (Homo sapiens) (UniProt P03372); conditions: Compound concentration 10.0 uM
[17] = target: Prostaglandin G/H synthase 2 (Homo sapiens) (UniProt P35354); test: Inhibition of Cyclooxygenase COX-2 at compound concentration of 10.0 uM in the Eurofins-Panlabs enzyme assay (Eurofins_assay_118010); design: substrate with concentration 0.3 uM Arachidonic acid, incubation time 15 min, incubation temperature 37 C; conditions: Compound concentration 10.0 uM
[18] = target: Adenosine receptor A3 (Homo sapiens) (UniProt P0DMS8); conditions: Compound concentration 10.0 uM
Adenosine receptor A3 (Homo sapiens), sequence (P0DMS8 whole entry): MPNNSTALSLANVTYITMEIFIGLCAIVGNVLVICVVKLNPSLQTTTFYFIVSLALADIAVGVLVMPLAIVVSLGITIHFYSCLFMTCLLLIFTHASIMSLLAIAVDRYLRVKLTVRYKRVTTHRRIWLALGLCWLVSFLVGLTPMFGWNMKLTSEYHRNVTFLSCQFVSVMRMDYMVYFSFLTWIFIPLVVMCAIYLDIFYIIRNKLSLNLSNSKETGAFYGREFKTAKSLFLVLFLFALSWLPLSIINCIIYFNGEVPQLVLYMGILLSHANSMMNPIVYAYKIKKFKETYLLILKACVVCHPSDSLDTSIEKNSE

[19] = target: T2, Alpha-2B adrenergic receptor (Homo sapiens) (UniProt P18089); conditions: Compound concentration 10.0 uM
T2 sequence (whole entry): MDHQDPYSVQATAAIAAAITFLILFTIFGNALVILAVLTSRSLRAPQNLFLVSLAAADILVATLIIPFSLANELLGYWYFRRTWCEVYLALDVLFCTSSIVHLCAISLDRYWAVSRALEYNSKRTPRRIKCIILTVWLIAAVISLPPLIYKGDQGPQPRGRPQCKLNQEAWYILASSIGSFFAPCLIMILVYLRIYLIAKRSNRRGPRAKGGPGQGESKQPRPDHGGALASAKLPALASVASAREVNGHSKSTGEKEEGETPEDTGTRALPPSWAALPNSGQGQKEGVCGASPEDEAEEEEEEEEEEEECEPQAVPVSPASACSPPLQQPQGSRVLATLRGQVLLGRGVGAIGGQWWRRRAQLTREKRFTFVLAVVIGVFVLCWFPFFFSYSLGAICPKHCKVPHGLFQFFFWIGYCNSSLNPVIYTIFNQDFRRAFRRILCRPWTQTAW

D(1A) dopamine receptor = D(1A) dopamine receptor (Homo sapiens, UniProt P21728); conditions: Compound concentration 10.0 uM
D(1A) dopamine receptor, sequence (P21728 whole entry): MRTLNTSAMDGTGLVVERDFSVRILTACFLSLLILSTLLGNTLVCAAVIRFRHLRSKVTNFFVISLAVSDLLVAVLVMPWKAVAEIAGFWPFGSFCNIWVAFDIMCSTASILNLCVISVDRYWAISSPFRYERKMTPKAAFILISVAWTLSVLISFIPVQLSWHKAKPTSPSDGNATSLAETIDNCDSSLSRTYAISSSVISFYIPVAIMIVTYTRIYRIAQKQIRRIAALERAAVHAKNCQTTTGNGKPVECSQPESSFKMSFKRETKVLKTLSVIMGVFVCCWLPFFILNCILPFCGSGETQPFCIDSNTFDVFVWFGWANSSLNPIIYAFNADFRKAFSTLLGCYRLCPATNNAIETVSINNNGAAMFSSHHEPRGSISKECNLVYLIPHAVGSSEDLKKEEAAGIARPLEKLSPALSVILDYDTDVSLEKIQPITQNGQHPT

[20] = target: Melanocortin receptor 4 (Homo sapiens) (UniProt P32245); test: Inhibition of Melanocortin MC4 at 10 µM in the Eurofins-Panlabs radioligand binding assay (Eurofins_assay_251350); design: ligand concentration 0.02 nM; conditions: Compound concentration 10.0 uM
Melanocortin receptor 4 (Homo sapiens), sequence (P32245 whole entry): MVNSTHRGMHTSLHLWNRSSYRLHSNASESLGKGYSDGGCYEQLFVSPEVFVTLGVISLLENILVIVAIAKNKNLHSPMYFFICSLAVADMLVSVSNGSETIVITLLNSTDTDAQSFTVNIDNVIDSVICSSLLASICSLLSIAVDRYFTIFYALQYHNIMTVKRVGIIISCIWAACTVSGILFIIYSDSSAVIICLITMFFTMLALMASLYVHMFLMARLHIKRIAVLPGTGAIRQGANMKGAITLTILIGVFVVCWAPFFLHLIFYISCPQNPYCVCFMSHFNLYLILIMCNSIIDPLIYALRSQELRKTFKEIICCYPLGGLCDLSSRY

Gonadotropin-releasing hormone receptor, sequence (P30968 whole entry): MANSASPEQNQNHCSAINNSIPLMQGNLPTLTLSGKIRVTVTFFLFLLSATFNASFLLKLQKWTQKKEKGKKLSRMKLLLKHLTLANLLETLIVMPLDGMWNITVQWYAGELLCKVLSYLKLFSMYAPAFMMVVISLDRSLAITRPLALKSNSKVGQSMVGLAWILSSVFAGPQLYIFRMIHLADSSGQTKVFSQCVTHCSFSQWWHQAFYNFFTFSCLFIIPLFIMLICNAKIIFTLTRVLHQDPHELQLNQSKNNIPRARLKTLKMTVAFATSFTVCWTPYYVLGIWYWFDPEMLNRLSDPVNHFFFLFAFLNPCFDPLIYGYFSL

O=C(NCc1ncc(C(F)(F)F)cc1Cl)c1ccc2c(c1)C1(CCS(=O)(=O)CC1)[C@@H](C1CC1)N2S(=O)(=O)c1ccc(F)cc1 [BAY-786]
inactive: inhibition [1] -4.64%
2.4 µM (not active): IC50 [2]

O=C(NCc1ncc(C(F)(F)F)cc1Cl)c1ccc2c(c1)C1(CCS(=O)(=O)CC1)[C@H](C1CC1)N2S(=O)(=O)c1ccc(F)cc1 [BAY-784]
inactive: inhibition [3] -9.68% | inhibition [5] 0% | inhibition [7] 13% | inhibition [8] 10% | inhibition [9] 3% | inhibition [10] -3% | inhibition [11] 0% | inhibition [12] -5% | inhibition [13] -1% | inhibition [14] -8% | inhibition [15] 6% | inhibition [16] 21% | inhibition [17] 4% | inhibition [18] 9% | inhibition [19] 4% | inhibition (D(1A) dopamine receptor) 6% | inhibition [20] 12%
active: inhibition [4] 56%
2% (not active): inhibition at 10 µM [6]
